Data on 10 molecules can be found in patent publication EP4806898A1, “HETEROARYL DERIVATIVE COMPOUND AND USE THEREOF” (Voronoi Inc., priority 2023, dated 2025).

For assay [1], the target named is T1, recombinant USP1 protein (Homo sapiens, UniProt O94782, DEL125-138/DEL229-408/DEL608-737).
T1 sequence (O94782 with tags, fused parts or gaps DEL125-138/DEL229-408/DEL608-737): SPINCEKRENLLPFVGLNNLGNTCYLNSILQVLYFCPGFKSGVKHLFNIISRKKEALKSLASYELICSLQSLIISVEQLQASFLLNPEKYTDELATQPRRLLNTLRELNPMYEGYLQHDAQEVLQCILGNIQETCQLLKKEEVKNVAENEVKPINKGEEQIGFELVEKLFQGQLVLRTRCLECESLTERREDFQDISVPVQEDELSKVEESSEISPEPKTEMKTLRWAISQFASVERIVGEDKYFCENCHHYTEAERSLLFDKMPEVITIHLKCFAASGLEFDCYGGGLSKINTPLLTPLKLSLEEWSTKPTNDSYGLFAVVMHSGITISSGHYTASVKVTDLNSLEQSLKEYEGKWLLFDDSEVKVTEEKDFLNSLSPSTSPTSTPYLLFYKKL
The experiment in a line: Binding affinity to recombinant USP1 protein by differential scanning fluorimetry. The settings on record: compound 100 µM, 0.03 mg/mL USP1 (Δ1-66, Δ125-138, Δ229-408, Δ608-737), Tm with compound minus Tm with DMSO; for ΔTm at 100 µM: read-out: ΔTm (°C). A digest of the protocol:
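Thermal shift readout: ΔTm is the compound-well melting temperature less the DMSO-well value, measured by real-time PCR. Compounds tested at 100 µM final against 0.03 mg/mL truncated USP1 (Δ1-66, Δ125-138, Δ229-408, Δ608-737) in pH 8.0 Tris buffer containing 150 mM NaCl, 2% glycerol, 1 mM DTT.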
On the technique in general: DSF heats the sample and reads unfolding from a dye or from intrinsic fluorescence.

The subject of assay [2] is UWB1.289 cells. Kind of assay: Cell proliferation inhibitory activity in BRCA1/2-mutant or HRD-positive cells (Cell Titer-Glo). It counts as cell-based. The settings on record: UWB1.289 cells, 144 hours after compound treatment, Cell Titer-Glo, 1.5 nM to 10 µM, read-out: GI50 UWB1.289 BRCA1 mut. A digest of the protocol: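 GI50 from CellTiter-Glo luminescence after 144 h compound exposure at 37 °C. Cells seeded at 1,000 per well in MEBM/RPMI1640 mix 16–24 h beforehand; […] from 10 µM down to 1.5 nM final (3-fold steps).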
(In general: In ATP-based viability assays light output follows the ATP content of the culture.)

One may read the ΔTm as the change in melting temperature against a reference sample. One may read the GI50 as the concentration giving 50% growth inhibition.

Like-named read-outs stand apart in the source and are kept apart here.

Turning to `COc1ncnc(C2CC2)c1-c1ncc2cc(C(=O)N3CC[C@@H](O)C3)n(Cc3ccc(-c4nc(C(F)(F)F)cn4C(C)C)cc3)c2n1` [Example 105, (R) - (2-(4-cyclopropyl-6-methoxypyrimid in-5-yl)-7-(4-(1-isopropyl-4-(trifluoromethyl)-1H-imidazol-2-yl)benzyl)-7H-pyrrolo[2,3-d]pyrimidin-6-yl) (3-hydroxypyrrolidin-1-yl)methanone], the ΔTm at 100 µM in assay [1] is > 5 °C. Moreover, the GI50 in assay [2] (UWB1289) lay within 100 to 500 nM.
As to `CNC(=O)c1cc2cnc(-c3ccccc3C(C)C)nc2n1Cc1ccc(-c2nc(C(F)(F)F)cn2C)cc1` [Example 180, 2-(2-isopropylphenyl)-N-methyl-7-(4-(1-methyl-4-(trifluoromethyl)-1H-imidazol-2-yl)benzyl)-7H-pyrrolo[2,3-d]pyrimidine-6-carboxamide], the shift in melting temperature (ΔTm) at 100 µM in assay [1] was > 5 °C. Also, the GI50 in assay [2] (UWB1289) is < 100 nM.
Regarding `COc1ncnc(C2CC2)c1-c1ncc2cc(C(=O)NCC3COC3)n(Cc3ccc(-c4nc(C(F)(F)F)cn4C(C)C)cc3)c2n1` [Example 141, 2-(4-cyclopropyl-6-methoxypyrimidin-5-yl)-7-(4-(1-isopropyl-4-(trifluoromethyl)-1H-imidazol-2-yl)benzyl)-N-(oxetan-3-ylmethyl) -7H-pyrrolo[2,3-d]pyrimidine-6-carboxamide], in assay [1], the ΔTm at 100 µM was > 5 °C. In addition, the concentration for 50% growth inhibition (GI50) in assay [2] (UWB1289) is < 100 nM.
Taken in the same sequence, the figures for `COc1ncnc(C2CC2)c1-c1ncc2cc(C(=O)NCCN3CCOCC3)n(Cc3ccc(-c4nc(C(F)(F)F)cn4C(C)C)cc3)c2n1` [Example 6, 2-(4-cyclopropyl-6-methoxypyrimidin-5-yl)-7-(4-(1-isopropyl-4-(trifluoromethyl)-1H-imidazol-2-yl)benzyl)-N-(2-morpholinoethyl)-7H-pyrrolo[2,3-d]pyrimidine-6-carboxamide] were > 5 °C and < 100 nM.
On to “2-(4-cyclopropyl-6-ethoxypyrimidi n-5-yl)-7-(4-(1-isopropyl-4-(trifluorometh yl)-1H-imidazol-2-yl)benzyl)-N-methyl-7H-pyrrolo[2,3-d]pyrimidine-6-carboxamide [Example 63]”, for which the “ΔTm (°C)” value in assay [1] was “A (ΔTm (°C) > 5 °C)”. Besides, the GI50 in assay [2] was < 100 nM.
Regarding `CNC(=O)c1cc2cnc(-c3c(OC)ncnc3C3CC3)nc2n1Cc1ccc(-c2nc(C(F)(F)F)cn2C(C)C)c(F)c1` [Example 146, 2-(4-cyclopropyl-6-methoxypyrimidin-5-yl)-7-(3-fluoro-4-(1-isopropyl-4-(trifluoromethyl)-1H-imidazol-2-yl)benzyl)-N-methyl-7H-pyrrolo[2,3-d]pyrimidine-6-carboxamide], the ΔTm at 100 µM in assay [1] is > 5 °C. Also, in assay [2] (UWB1289), the GI50 is < 100 nM.
On to `COc1ncnc(C2CC2)c1-c1ncc2cc(C(=O)NC[C@H](O)CO)n(Cc3ccc(-c4nc(C(F)(F)F)cn4C)cc3)c2n1` [Example 152, (S)-2-(4-cyclopropyl-6-methoxypyrimidin-5-yl)-N-(2,3-dihydroxypropy 1)-7-(4-(1-methyl-4-(trifluoromethyl)-1H-imidazol-2-yl)benzyl)-7H-pyrrolo[2,3-d]pyrimidine-6-carboxamide], for which, in assay [1], the ΔTm at 100 µM was > 5 °C. For the same molecule, the 50% growth inhibitory concentration (GI50) in assay [2] (UWB1289) is 100 to 500 nM.
On to `COc1ncnc(C2CC2)c1-c1ncc2cc(C(=O)N(C)C)n(Cc3ccc(-c4nc(C(F)(F)F)cn4C(C)C)cc3)c2n1` [Example 5, 2-(4-cyclopropyl-6-methoxypyrimidin-5-yl)-7-(4-(1-isopropyl-4-(trifluoromethyl)-1H-imidazol-2-yl)benzyl)-N,N-dimethyl-7H-pyrrolo[2,3-d]pyrimidine-6-carboxamide], for which the ΔTm at 100 µM in assay [1] was > 5 °C. In assay [2] (UWB1289), the GI50 was < 100 nM.
Consider `COc1ncnc(C2CC2)c1-c1ncc2cc(C(=O)NC[C@@H]3CCO3)n(Cc3ccc(-c4nc(C(F)(F)F)cn4C(C)C)cc3)c2n1` [Example 66, (S)-2-(4-cyclopropyl-6-methoxypyrimidin-5-yl)-7-(4-(1-isopropyl-4-(trifluoromethyl)-1H-imidazol-2-yl)benzyl)-N-(oxetan-2-ylmethyl)-7H-pyrrolo[2,3-d]pyrimidine-6-carboxamide], for which the thermal shift (ΔTm) at 100 µM in assay [1] is > 5 °C. In addition, the GI50 in assay [2] (UWB1289) was < 100 nM.
In the case of `COc1ncnc(C2CC2)c1-c1ncc2cc(C(=O)N[C@@H]3CCN(C)C3)n(Cc3ccc(-c4nc(C(F)(F)F)cn4C)cc3)c2n1` [Example 169, (R) -2-(4-cyclopropyl-6-methoxypyrimidin-5-yl)-7-(4-(1-methyl-4-(trifluoromethyl)-1H-imidazol-2-yl)benzyl)-N-(1-methylpyrrolidin-3-yl)-7H-pyrrolo[2,3-d]pyrimidine-6-carboxamide], the thermal shift (ΔTm) at 100 µM in assay [1] was > 5 °C. For the same molecule, the GI50 in assay [2] (UWB1289) was < 100 nM.
